Earlier results on 1 compound are cited in patent US20100261666A1, “COMPOSITIONS AND METHODS FOR THE TREATMENT OF MYOCARDIAL DYSFUNCTION ASSOCIATED WITH SIRS OR SEPSIS” (THE BOARD OF TRUSTEES OF THE UNIVERSITY OF ILLINOIS, priority 2009, published 2010).

pKi: −log10 of the molar value.

The target of this data set is ADA (Homo sapiens, UniProt P00813). The following applies: cited from earlier work.
ADA, sequence (P00813 whole entry, species assumed): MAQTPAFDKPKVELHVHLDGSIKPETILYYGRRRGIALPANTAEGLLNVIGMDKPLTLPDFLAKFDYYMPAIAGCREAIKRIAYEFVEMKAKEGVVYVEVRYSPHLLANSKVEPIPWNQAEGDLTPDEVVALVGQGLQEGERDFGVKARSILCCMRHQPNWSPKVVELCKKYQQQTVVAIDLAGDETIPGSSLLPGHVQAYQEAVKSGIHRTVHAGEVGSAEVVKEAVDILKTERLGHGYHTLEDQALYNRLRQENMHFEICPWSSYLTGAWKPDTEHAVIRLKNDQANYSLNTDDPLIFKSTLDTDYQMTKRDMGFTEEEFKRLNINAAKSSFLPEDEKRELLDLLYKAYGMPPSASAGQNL

`OC[C@H]1O[C@@H](n2cnc3c2N=CNCC3O)C(O)[C@H]1O` (stereo partly shown) [coformycin]: the pKi – broadly, the negative decadic logarithm of the Ki, by convention in mol/L – is 11.00.
